# Earlier results in patent EP0211258A2, “Microemulsion compositions” (ABBOTT LABORATORIES, priority 1985, dated 1987).
# Settings: commonly employed aqueous solutions, 2.5%, w/v
smiles,measurement,value
CCCC(C)C1(CC)C(=O)NC(=S)NC1=O (stereo not shown) [thiopental sodium],pH,10.5
